Experimental findings from US20260263521A1, “ANTI-CD200R1 ANTIBODY AND USE THEREOF” (AIMED BIO INC., priority 2023, published 2026) are described below.

For this assay, the system named is Th1/Th2 cytokines in nasal polyp patient specimens. Description: Ex vivo cytokine inhibition in nasal polyp patient specimens (CBA). The assay is classed as cell-based, human. The conditions noted are these: antibody drugs 100 nM; three DUPIXENT-resistant samples of 10; Th2 cytokines IL-5, IL-4. As for the experimental part: The specimens were finely chopped and minced, and then additionally processed twice using the m_lung_02 protocol on a gentleMACS (Miltenyi Biotec) to obtain tissue fragments. After centrifugation at 1500 rpm for 3 minutes to ensure that all tissues formed a pellet, RPMI media+10% FBS was aliquoted in the pellet at a 1:3 ratio. The pellet was thoroughly mixed with the medium and dispensed into a 96-well u-bottom plate, 100 μl per well, in triplicate for each drug. To establish the screening assay, results were obtained first using dexamethasone (a steroid-based positive control drug), followed by treatment with the anti-CD200R1 antibody (P001009v1) and other drugs used for the corresponding disease. All antibody-based drugs were treated at 100 nM, while steroid drugs such as dexamethasone were treated at 20 μM.
After drug treatment, the cells were incubated at 37° C. for 1 hour. To increase overall cytokine levels, 4 μl of a 10-fold diluted cell stimulation cocktail 500× (Invitrogen #00-4970-03) was added on each well and mixed. After reaction for 24 hours at 37° C., the supernatant was collected by centrifugation. Using the human Th1/Th2 cytokine cytometric bead array (CBA) kit (BD, #550749), cytokine levels in the supernatant were measured and the degree of drug responsiveness of each sample was determined.

Consider “DUPIXENT®: drug used as a conventional therapeutic agent for atopic dermatitis and allergic diseases [reference compound]”, for which the “cytokine suppression in nasal polyp patient samples” value is on record as “no suppression”.
